What all share (type): cell-based
One test has as its system A431 (EGFR-WT). Kind of test: Proliferation experiment, A431 cell line (CellTiter-Glo). To be noted: Homo sapiens, A-431; A431 cells, cultured for 72 hrs with compound, CTG analysis. As for the experimental part: [The procedure below names another cell line; the source lists this cell line under the same test.] (§1) Proliferation Experiment of Ba/F3 Cell Line
(§2) (I) Reagents and Materials
(§3) • Fetal bovine serum FBS (GBICO, Cat #10099-141); • CellTiter-Glo® luminescent cell viability assay kit (Promega, Cat #G7572); • Black transparent flat-bottom 96 well plate (Corning®, Cat #3603). (II) Instruments • SpectraMax multi-label microplate reader MD, 2104-0010A; • Carbon dioxide incubator, Thermo Scientific 3100 series; • Biological safety cabinet, Thermo Scientific, 1300 series model A2; • Inverted microscope, Olympus, CKX41SF; • Siemens refrigerator KK25E76TI. (III) Cell Lines and Culture Conditions
(§4) (IV) Experimental Procedures 1. Cell Culture and Inoculation: • (1) Cells in the logarithmic growth phase were harvested and counted using a […]. Cell viability was detected by Trypan Blue Dye Exclusion Method to ensure cell viability above 90%. • (2) The cell concentration was adjusted to reach a desired final density; 90 μL of cell suspension was added to the 96-well plate. • (3) The cells were incubated overnight in the 96-well plate at 37° C., 5% CO2 and at 95% humidity.
(§5) 2. T0 Reference Data: • (1) 10 μL PBS was added to each well of the TO plate containing the cells. • (2) The CTG reagent was thawed and the cell plate was equilibrated to room temperature for 30 min. • (3) An equal volume of CTG solution was added to each well. • (4) The cells were lysed by shaking on an orbital shaker for 5 min. • (5) The cell plate was left at room temperature for 20 min to stabilize the luminescence signal. • (6) The fluorescence signal values of TO were read. 3. Dilution and Addition of Compounds • (1) According to the compound information table, a corresponding volume of DMSO was added to the corresponding compound powder to prepare a 10 mM stock solution. • (2) A 1000-fold, 3.16-fold-diluted compound solution was prepared. • (3) The 1000× diluted compound solution was diluted 100-fold with PBS to prepare a 10-fold compound solution with a maximum concentration of […], including 9 concentrations, with 3.16-fold dilution, and 10 μL of the medicament solution was added to each well of the 96-well plate to seed the cells. Triplicate wells were set for each compound concentration, with a final concentration of DMSO being 0.1%. • (4) The cells were placed in the 96-well plate filled with the medicament at 37° C., 5% CO2 and at 95% humidity, and cultured for 72 hrs before CTG analysis. 4. Fluorescence Signal Reading • (1) The CTG reagent was thawed and the cell plate was equilibrated to room temperature for 30 min. • (2) An equal volume of CTG solution was added to each well. • (3) The cells were lysed by shaking on an orbital shaker for 5 min. • (4) The cell plate was left at room temperature for 20 min to stabilize the fluorescence signal. • (5) The fluorescence values were read. 5. Data Processing
(§6) Data were analyzed using GraphPad Prism 7.0 software and fitted data were regressed using non-linear S-curves to obtain dose-response curves from which IC50 values (in nM) were calculated.
On the technique in general: Cellular ATP, detected with luciferase, serves as a proxy for viable cell number.

Test [1] concerns the target Ba/F3 EGFR-V769_D770insASV (Homo sapiens, UniProt P00533, DUP767-769, cells depend on it). Kind of test: Proliferation experiment of Ba/F3 cell line, EGFR-V769_D770insASV (CellTiter-Glo). To be noted: cultured for 72 hrs with compound, CTG analysis, read-out: Ba/F3 EGFR-V769_D770insASV IC50. Here is the method: as §1, §2, §3, §4, §5, §6
The target of test [2] is Ba/F3 EGFR-D770-N771ins_SVD (Homo sapiens, UniProt P00533, DUP768-770, cells depend on it). Kind of test: Proliferation experiment of Ba/F3 cell line, EGFR-D770-N771ins_SVD (CellTiter-Glo). The settings on record: cultured for 72 hrs with compound, CTG analysis, read-out: Ba/F3 EGFR-D770-N771ins_SVD IC50. As for the experimental part: as §1, §2, §3, §4, §5, §6

SMILES strings stand for the structures.

Chain of Ba/F3 EGFR-D770-N771ins_SVD (P00533 with tags, fused parts or gaps DUP768-770): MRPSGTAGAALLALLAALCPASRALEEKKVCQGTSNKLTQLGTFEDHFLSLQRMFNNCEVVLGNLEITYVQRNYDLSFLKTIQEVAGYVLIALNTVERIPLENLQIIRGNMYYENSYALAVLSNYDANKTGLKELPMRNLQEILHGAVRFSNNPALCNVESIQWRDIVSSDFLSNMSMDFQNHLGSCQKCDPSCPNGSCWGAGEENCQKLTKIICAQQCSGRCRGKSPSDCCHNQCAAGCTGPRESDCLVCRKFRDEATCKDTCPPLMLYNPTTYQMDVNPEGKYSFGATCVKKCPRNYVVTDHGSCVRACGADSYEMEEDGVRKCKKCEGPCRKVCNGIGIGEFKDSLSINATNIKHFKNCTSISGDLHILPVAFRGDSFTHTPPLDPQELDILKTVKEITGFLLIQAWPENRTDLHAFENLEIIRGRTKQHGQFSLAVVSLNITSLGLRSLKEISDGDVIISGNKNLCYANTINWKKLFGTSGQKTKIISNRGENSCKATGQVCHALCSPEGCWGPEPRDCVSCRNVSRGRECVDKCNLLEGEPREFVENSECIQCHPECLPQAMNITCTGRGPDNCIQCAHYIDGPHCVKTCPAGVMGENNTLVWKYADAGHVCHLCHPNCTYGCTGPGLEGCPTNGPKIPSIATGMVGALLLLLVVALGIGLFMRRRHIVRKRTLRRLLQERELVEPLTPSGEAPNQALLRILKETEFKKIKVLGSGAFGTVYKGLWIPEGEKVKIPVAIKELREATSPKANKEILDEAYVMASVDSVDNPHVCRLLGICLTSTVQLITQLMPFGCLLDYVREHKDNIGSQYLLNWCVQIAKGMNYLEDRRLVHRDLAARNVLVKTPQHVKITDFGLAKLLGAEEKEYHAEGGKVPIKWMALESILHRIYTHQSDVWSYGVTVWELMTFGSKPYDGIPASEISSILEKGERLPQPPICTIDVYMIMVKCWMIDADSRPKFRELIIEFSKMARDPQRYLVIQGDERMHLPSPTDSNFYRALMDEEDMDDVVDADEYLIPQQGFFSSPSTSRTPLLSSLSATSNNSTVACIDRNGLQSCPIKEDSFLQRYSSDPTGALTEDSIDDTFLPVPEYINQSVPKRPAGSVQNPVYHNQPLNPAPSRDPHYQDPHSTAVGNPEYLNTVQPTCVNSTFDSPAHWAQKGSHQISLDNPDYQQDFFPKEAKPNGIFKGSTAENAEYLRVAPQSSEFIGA
Chain of Ba/F3 EGFR-V769_D770insASV (P00533 with tags, fused parts or gaps DUP767-769): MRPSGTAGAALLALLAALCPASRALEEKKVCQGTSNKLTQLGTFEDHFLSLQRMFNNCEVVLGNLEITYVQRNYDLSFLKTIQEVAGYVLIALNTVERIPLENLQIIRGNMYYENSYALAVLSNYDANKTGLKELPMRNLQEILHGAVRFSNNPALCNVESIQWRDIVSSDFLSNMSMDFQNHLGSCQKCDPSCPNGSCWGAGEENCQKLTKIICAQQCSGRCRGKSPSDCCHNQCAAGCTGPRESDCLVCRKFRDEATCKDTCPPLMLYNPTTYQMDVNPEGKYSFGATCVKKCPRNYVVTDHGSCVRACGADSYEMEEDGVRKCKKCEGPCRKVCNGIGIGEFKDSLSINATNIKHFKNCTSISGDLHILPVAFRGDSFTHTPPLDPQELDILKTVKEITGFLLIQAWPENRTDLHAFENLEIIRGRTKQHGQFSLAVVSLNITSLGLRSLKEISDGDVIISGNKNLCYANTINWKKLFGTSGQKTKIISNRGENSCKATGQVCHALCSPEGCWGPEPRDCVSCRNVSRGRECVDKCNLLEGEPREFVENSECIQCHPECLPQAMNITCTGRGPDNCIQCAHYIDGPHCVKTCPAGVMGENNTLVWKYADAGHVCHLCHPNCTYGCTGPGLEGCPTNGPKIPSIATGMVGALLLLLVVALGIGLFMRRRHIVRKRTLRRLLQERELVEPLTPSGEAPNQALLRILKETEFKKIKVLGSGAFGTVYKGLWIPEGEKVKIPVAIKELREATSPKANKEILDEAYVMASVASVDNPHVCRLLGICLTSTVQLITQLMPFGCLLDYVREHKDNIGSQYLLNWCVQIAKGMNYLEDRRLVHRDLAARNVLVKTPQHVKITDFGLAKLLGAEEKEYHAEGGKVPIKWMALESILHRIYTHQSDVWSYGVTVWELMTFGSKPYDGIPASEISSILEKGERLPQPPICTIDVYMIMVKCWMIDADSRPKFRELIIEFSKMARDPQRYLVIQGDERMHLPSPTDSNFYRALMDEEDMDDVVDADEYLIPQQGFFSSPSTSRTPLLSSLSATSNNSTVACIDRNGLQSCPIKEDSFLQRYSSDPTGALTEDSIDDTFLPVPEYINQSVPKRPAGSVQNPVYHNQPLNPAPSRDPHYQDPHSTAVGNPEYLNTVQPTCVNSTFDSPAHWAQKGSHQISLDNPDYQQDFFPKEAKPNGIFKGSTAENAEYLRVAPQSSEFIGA

With `C=CC(=O)Nc1cc2c(Nc3cccc(-c4ccc(F)cc4F)c3)ncnc2cc1OCCCN1CCOCC1` [Example 1, N-(4-((2′,4′-difluoro-[1,1′-biphenyl]-3-yl)amino)-7-(3-morpholinopropoxy)quinazolin-6-yl)acrylamide], the IC50 (in general, the concentration that inhibits the measured activity by half) in the test with A431 (EGFR-WT) was determined as 215 nM. Also, the GI50 in test [1] turned out to be 42.4 nM; in test [2], 11.8 nM.
Taken in the same sequence, the figures for `C=CC(=O)Nc1cc2c(Nc3cccc(-c4ccc(F)cc4F)c3)ncnc2cc1OCCN1CCOCC1` [Example 3, N-(4-((2′,4′-difluoro-[1,1′-biphenyl]-3-yl)amino)-7-(2-morpholinoethoxy)quinazolin-6-yl)acrylamide] were 343 nM, 117 nM and 38.5 nM.
On to `C=CC(=O)Nc1cc2c(Nc3cccc(-c4ccc(F)cc4F)c3)ncnc2cc1OCCN1CCN(C)CC1` [Example 4, N-(4-((2′,4′-difluoro-[1,1′-biphenyl]-3-yl)amino)-7-(2-(4-methylpiperazin-1-yl)ethoxy)quinazolin-6-yl)acrylamide], for which the figures for the GI50 in test [1] and in test [2] were 175 nM and 52.5 nM, respectively.
Regarding `C=CC(=O)Nc1cc2c(Nc3cccc(-c4c(F)cccc4F)c3)ncnc2cc1OCCCN1CCN(C)CC1` [Example 5, N-(4-((2′,6′-difluoro-[1,1′-biphenyl]-3-yl)amino)-7-(3-(4-methylpiperazin-1-yl)propoxy)quinazolin-6-yl)acrylamide], the IC50 in the test with A431 (EGFR-WT) is 223 nM. Further, the GI50 in test [1] was 20.3 nM; in test [2], 13 nM.
In the same order, the values of `C=CC(=O)Nc1cc2c(Nc3cccc(-c4ccc(F)cc4)c3)ncnc2cc1OCCCN1CCOCC1` [Example 6, N-(4-((4′-fluoro-[1,1′-biphenyl]-3-yl)amino)-7-(3-morpholinopropoxy)quinazolin-6-yl)acrylamide] are 61.4 nM, 89 nM and 37.5 nM.
Taken in the same sequence, the figures for `C=CC(=O)Nc1cc2c(Nc3cccc(-c4ccc(F)cc4F)c3)ncnc2cc1OCCCN1CCN(C)CC1` [Example 7, N-(4-((2′,4′-difluoro-[1,1′-biphenyl]-3-yl)amino)-7-(3-(4-methylpiperazin-1-yl)propoxy)quinazolin-6-yl)acrylamide] were 238 nM, 28.4 nM and 25.2 nM.
Taken in the same sequence, the figures for `C=CC(=O)Nc1cc2c(Nc3cccc(-c4ccc(F)cc4F)c3)ncnc2cc1O[C@@H]1CCN(C)C1` [Example 8, (R)-N-(4-((2′,4′-difluoro-[1,1′-biphenyl]-3-yl)amino)-7-((1-methylpyrrolidin-3-yl)oxy)quinazolin-6-yl)acrylamide] were 343 nM, 178 nM and 88.8 nM.
For the molecule `C=CC(=O)Nc1cc2c(Nc3cc(-c4ccc(F)cc4F)ccc3F)ncnc2cc1OCCCN1CCOCC1` [Example 11, N-(7-(3-morpholinopropoxy)-4-((2′,4,4′-trifluoro-[1,1′-biphenyl]-3-yl)amino)quinazolin-6-yl)acrylamide], the half-inhibitory concentration (IC50) with A431 (EGFR-WT) was 479 nM. The GI50 in test [1] was found to be 119 nM; in test [2], 29.3 nM.
For `C=CC(=O)Nc1cc2c(Nc3cccc(-c4ccc(F)cc4F)c3)ncnc2cc1OCCCN1CCC(F)(F)CC1` [Example 14, N-(4-((2′,4′-difluoro-[1,1′-biphenyl]-3-yl)amino)-7-(3-(4,4-difluoropiperidin-1-yl)propoxy)quinazolin-6-yl)acrylamide], the IC50 with A431 (EGFR-WT) turned out to be 365 nM. In addition, the GI50 was 221 nM in test [1] and 34.4 nM in test [2].
Taken in the same sequence, the figures for `C=CC(=O)Nc1cc2c(Nc3cccc(-c4ccc(F)cc4F)c3)ncnc2cc1OCCCN1CCC(F)(F)C1` [Example 15, N-(4-((2′,4′-difluoro-[1,1′-biphenyl]-3-yl)amino)-7-(3-(3,3-difluoropyrrolidin-1-yl)propoxy)quinazolin-6-yl)acrylamide] were 498 nM, 137 nM and 56.1 nM.
In the same order, the values of `C=CC(=O)Nc1cc2c(Nc3cccc(-c4ncc(F)cc4F)c3)ncnc2cc1OCCCN1CCOCC1` [Example 17, N-(4-((3-(3,5-difluoropyridin-2-yl)phenyl)amino)-7-(3-morpholinopropoxy)quinazolin-6-yl)acrylamide] are 518 nM, 90.9 nM and 26.1 nM.
Taken in the same sequence, the figures for `C=CC(=O)Nc1cc2c(Nc3cccc(-c4ccc(F)cc4F)c3)ncnc2cc1OCCN1CCC(F)(F)C1` [Example 19, N-(4-((2′,4′-difluoro-[1,1′-biphenyl]-3-yl)amino)-7-(2-(3,3-difluoropyrrolidin-1-yl)ethoxy)quinazolin-6-yl)acrylamide] were 597 nM, 177 nM and 70.5 nM.
On to `C=CC(=O)Nc1cc2c(Nc3cc(-c4ccc(F)cc4F)ccc3F)ncnc2cc1OCCCN1CCN(C)CC1` [Example 20, N-(7-(3-(4-methylpiperazin-1-yl)propoxy)-4-((2′,4,4′-trifluoro-[1,1′-biphenyl]-3-yl)amino)quinazolin-6-yl)acrylamide], for which the IC50 in the test on A431 (EGFR-WT) stood at 252 nM. The GI50 turned out to be 53.9 nM in test [1] and 36.5 nM in test [2].
Turning to `C=CC(=O)Nc1cc2c(Nc3cccc(-c4ccc(F)cc4F)c3)ncnc2cc1OCCN1CCC(F)(F)CC1` [Example 21, N-(4-((2′,4′-difluoro-[1,1′-biphenyl]-3-yl)amino)-7-(2-(4,4-difluoropiperidin-1-yl)ethoxy)quinazolin-6-yl)acrylamide], in the test with A431 (EGFR-WT), the IC50 was 966 nM. The GI50 worked out at 240 nM in test [1] and 104 nM in test [2].
For the molecule `C=CC(=O)Nc1cc2c(Nc3cccc(-c4c(F)cccc4F)c3)ncnc2cc1OCCCN1CCN(C(C)C)CC1` [Example 22, N-(4-((2′,6′-difluoro-[1,1′-biphenyl]-3-yl)amino)-7-(3-(4-isopropylpiperazin-1-yl)propoxy)quinazolin-6-yl)acrylamide], the IC50 with A431 (EGFR-WT) came out at 270 nM. For the same molecule, the figures for the GI50 in test [1] and in test [2] were 30.6 nM and 13.7 nM, respectively.
For `C=CC(=O)Nc1cc2c(Nc3cccc(-n4cccn4)c3)ncnc2cc1OCCN1CCOCC1` [Example 51, N-(4-((3-(1H-pyrazol-1-yl)phenyl)amino)-7-(2-morpholinoethoxy)quinazolin-6-yl)acrylamide], the GI50 is 89.9 nM in test [1] and 40.6 nM in test [2].
As to `C=CC(=O)Nc1cc2c(Nc3cccc(-n4cccn4)c3)ncnc2cc1OCCCN1CCOCC1` [Example 52, N-(4-((3-(1H-pyrazol-1-yl)phenyl)amino)-7-(3-morpholinopropoxy)quinazolin-6-yl)acrylamide], the GI50 in test [1] worked out at 17.9 nM; in test [2], 10.4 nM.
In the same order, the values of `C=CC(=O)Nc1cc2c(Nc3cccc(-n4nccn4)c3)ncnc2cc1OCCN1CCOCC1` [Example 54, N-(4-((3-(2H-1,2,3-triazol-2-yl)phenyl)amino)-7-(2-morpholinoethoxy)quinazolin-6-yl)acrylamide] are 107 nM and 67.9 nM.
Taken in the same sequence, the figures for `C=CC(=O)Nc1cc2c(Nc3cccc(-n4nccn4)c3)ncnc2cc1OCCCN1CCOCC1` [Example 55, N-(4-((3-(2H-1,2,3-triazol-2-yl)phenyl)amino)-7-(3-morpholinopropoxy)quinazolin-6-yl)acrylamide] were 34.6 nM and 15 nM.
For the molecule `C=C(F)C(=O)Nc1cc2c(Nc3ccnc(-c4ccccc4F)c3)ncnc2cc1N1CC(F)(F)C1` [Example 107, N-(7-(3,3-difluoroazetidin-1-yl)-4-((2-(2-fluorophenyl)pyridin-4-yl)amino)quinazolin-6-yl)-2-fluoroacrylamide], in the test on A431 (EGFR-WT), the IC50 amounted to 2500 nM. Besides, the GI50 in test [2] amounted to 18.3 nM.

The record behind these values is patent publication US12649727B2, “EFGR inhibitor, preparation method therefor and application thereof” (Abbisko Therapeutics Co., Ltd, priority 2020, dated 2026).
